Results taken from PMC11605156, “Triterpenoids from Ganoderma lucidum inhibit cytochrome P450 enzymes interfering with the metabolic process of specific clinical drugs” (Frontiers in Pharmacology, 2024).

What was measured:
CYP2C19 = CYP2C19 (Homo sapiens, UniProt P33261); assay: CYP2C19 inhibition, S-mephenytoin probe in human liver microsomes; settings: human, human liver microsomes, pH 7.4, probe S-mephenytoin 50 μM, Residual activity (%) CYP2C19, HLM 0.5 mg/mL, S-mephenytoin 50 μM, 30 min
Protocol: (§1) The total volume of the in vitro metabolic incubation system is 200 μL. The probe substrate concentration in the system is shown in Supplementary Table S1. […] The reaction sample was preheated in a constant temperature mixer at 37°C. Then NADP^+ was added to the system to initiate the reaction. The reaction time is 30 min, and 100 μL acetonitrile will be added on time to quickly terminate the reaction, followed by centrifugation at 4°C and 20,000 g for 20 min. The supernatant was analyzed using liquid chromatography tandem mass spectrometry (LC-MS/MS), and the activity of CYP enzymes was evaluated by the generation of probe metabolites. The mass spectrometry information of probe substrates is shown in Supplementary Table S3.
(§2) The isolated triterpenoids (1–66) were used to establish a compounds library. The inhibitory effects of 66 triterpenoids from G. lucidum on seven subtypes of CYP enzymes (CYP1A2, 2A6, 2D6, 2B6, 2C9, 2C19, 3A4) were evaluated followed the above-mentioned experimental procedures.
(§3) Table S1. The information of probes for CYPs activity assay

CYP2B6 = molecular target: T1, CYP2B6 (Homo sapiens, UniProt P20813); assay: CYP2B6 inhibition, probe/drug metabolism in human liver microsomes; settings: human, human liver microsomes, pH 7.4, probe bupropion 75 μM, Residual activity (%) CYP2B6, HLM 0.5 mg/mL, bupropion 75 μM, 30 min
T1 sequence (P20813 1-491): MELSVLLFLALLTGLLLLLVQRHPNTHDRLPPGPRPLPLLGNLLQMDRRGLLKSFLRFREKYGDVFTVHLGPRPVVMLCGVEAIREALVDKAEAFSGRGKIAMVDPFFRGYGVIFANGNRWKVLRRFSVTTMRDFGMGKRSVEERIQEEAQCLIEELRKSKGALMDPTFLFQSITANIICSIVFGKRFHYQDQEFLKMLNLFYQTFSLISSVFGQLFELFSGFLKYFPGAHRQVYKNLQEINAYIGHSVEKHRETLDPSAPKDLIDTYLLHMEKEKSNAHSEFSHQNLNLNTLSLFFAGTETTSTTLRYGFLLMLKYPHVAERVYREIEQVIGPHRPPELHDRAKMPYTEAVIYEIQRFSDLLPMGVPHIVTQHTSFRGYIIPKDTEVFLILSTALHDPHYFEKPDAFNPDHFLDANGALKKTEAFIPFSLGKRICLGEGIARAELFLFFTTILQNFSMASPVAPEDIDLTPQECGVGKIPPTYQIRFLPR
Protocol: as §1, §2
(§4) For 16 clinical drugs metabolized by CYP enzymes, potential DDI studies were conducted on triterpenoids (6, 25) of G. lucidum, and IC50 values were measured.
(§5) Clinical drugs: Phenacetin, melatonin, clozapine and riluzole are metabolized by CYP1A2. Bupropion, artemisinin, efavirenz and sertraline are metabolized by CYP2B6. Diclofenac, valsartan, glimepiride and glibenclamide are metabolized by CYP2C9. Midazolam, imatinib, simvastatin and diltiazem are metabolized by CYP3A4.
as §3
(§6) Table S2. Information of clinical drugs

CYP2C9 = CYP2C9 (Homo sapiens, UniProt P11712); assay: CYP2C9 inhibition, probe/drug metabolism in human liver microsomes; settings: human, human liver microsomes, pH 7.4, probe diclofenac 4 μM, Residual activity (%) CYP2C9, HLM 0.5 mg/mL, diclofenac 4 μM, 30 min
Protocol: as §1, §2, §4, §5, §3, §6

CYP1A2 = molecular target: T2, CYP1A2 (Homo sapiens, UniProt P05177); assay: CYP1A2 inhibition, probe/drug metabolism in human liver microsomes (LC-MS/MS); settings: for activity at 30 min: Residual activity (%) CYP1A2, HLM 0.5 mg/mL, phenacetin 40 μM
T2 sequence (P05177 1-516): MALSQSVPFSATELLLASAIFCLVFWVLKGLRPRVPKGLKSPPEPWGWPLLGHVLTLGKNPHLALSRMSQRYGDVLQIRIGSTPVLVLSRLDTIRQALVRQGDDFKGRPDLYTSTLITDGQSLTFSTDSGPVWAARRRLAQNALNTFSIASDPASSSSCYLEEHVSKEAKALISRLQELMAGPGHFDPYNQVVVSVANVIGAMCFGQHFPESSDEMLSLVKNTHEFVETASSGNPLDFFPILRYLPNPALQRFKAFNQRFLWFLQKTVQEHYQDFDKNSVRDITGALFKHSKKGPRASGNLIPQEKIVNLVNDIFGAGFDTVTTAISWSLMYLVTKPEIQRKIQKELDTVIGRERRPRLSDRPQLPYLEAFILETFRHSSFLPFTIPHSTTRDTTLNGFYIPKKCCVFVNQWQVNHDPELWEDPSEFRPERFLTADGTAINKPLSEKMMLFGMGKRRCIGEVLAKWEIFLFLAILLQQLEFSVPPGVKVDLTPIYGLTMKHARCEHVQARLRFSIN
Protocol: as §1, §2, §4, §5, §3, §6

CYP2A6 = molecular target: T3, CYP2A6 (Homo sapiens, UniProt P11509); assay: CYP2A6 inhibition, coumarin probe in human liver microsomes; settings: human, human liver microsomes, pH 7.4, probe coumarin 2 μM, Residual activity (%) CYP2A6, HLM 0.5 mg/mL
T3 sequence (P11509 1-494): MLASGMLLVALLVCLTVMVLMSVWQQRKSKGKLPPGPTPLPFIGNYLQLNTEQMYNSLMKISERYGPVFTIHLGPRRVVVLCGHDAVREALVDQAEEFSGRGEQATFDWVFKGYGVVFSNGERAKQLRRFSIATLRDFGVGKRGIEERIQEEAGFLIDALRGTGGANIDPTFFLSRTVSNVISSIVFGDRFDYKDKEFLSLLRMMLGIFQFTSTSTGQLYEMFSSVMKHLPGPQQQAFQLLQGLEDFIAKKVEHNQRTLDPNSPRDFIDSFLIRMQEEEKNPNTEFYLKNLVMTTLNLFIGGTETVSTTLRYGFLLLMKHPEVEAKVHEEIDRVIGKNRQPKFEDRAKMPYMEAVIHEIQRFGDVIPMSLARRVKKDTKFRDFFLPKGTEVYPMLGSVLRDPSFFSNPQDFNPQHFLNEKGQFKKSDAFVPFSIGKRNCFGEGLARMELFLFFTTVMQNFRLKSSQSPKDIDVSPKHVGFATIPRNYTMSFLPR
Protocol: as §1, §2, §3

CYP2D6 = CYP2D6 (Homo sapiens, UniProt P10635); assay: CYP2D6 inhibition, dextromethorphan probe in human liver microsomes; settings: human, human liver microsomes, pH 7.4, probe dextromethorphan 5 μM, Residual activity (%) CYP2D6, HLM 0.5 mg/mL
Protocol: as §1, §2, §3

CYP3A4 = CYP3A4 (Homo sapiens, UniProt P08684); assay: CYP3A4 inhibition, probe/drug metabolism in human liver microsomes; settings: human, human liver microsomes, pH 7.4, probe midazolam 5 μM, Residual activity (%) CYP3A4, HLM 0.5 mg/mL, midazolam 5 μM, 30 min
Protocol: as §1, §2, §4, §5, §3, §6

[1] = IC50 against CYP 1A2, substrate phenacetin 40 μM, HLM
[2] = human, human liver microsomes, pH 7.4, probe phenacetin 40 μM

CYP2C9, sequence (P11712 whole entry): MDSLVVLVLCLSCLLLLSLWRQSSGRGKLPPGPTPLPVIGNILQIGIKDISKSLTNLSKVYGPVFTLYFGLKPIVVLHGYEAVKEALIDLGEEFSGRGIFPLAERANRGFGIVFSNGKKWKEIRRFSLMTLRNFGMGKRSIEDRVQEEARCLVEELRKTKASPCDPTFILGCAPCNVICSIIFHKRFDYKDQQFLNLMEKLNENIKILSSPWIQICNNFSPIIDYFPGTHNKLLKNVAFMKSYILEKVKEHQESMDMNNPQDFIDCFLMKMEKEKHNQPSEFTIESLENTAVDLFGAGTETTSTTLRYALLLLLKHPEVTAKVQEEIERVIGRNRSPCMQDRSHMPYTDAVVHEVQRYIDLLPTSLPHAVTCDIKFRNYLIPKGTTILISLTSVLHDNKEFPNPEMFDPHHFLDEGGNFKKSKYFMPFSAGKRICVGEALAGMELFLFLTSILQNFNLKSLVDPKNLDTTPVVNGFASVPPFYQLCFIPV
CYP2D6, sequence (P10635 whole entry): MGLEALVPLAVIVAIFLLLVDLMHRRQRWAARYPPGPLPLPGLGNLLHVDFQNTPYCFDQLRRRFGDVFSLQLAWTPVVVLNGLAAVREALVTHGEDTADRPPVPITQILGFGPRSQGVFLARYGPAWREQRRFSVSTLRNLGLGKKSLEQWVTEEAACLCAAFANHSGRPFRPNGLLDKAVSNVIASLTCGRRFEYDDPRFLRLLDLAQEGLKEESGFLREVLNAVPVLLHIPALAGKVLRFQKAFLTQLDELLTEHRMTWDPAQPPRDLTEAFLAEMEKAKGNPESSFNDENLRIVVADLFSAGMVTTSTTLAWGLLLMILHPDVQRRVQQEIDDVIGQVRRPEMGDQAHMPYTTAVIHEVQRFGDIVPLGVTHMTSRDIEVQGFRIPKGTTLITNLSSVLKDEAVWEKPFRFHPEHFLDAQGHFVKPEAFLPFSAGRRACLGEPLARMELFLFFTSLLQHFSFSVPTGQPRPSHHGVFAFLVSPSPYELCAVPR
CYP3A4, sequence (P08684 whole entry): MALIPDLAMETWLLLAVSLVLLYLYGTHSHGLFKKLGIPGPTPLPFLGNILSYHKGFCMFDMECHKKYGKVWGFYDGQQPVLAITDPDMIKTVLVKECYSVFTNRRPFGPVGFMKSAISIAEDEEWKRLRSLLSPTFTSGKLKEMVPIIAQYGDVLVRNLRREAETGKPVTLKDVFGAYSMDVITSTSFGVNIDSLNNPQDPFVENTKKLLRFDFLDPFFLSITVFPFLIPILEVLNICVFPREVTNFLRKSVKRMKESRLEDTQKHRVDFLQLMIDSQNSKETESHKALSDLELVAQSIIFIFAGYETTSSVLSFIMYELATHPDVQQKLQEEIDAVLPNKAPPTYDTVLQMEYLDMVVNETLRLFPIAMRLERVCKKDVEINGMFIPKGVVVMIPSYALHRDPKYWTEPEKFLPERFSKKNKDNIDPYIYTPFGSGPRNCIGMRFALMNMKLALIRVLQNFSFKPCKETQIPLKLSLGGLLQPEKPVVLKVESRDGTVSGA
CYP2C19, sequence (P33261 whole entry): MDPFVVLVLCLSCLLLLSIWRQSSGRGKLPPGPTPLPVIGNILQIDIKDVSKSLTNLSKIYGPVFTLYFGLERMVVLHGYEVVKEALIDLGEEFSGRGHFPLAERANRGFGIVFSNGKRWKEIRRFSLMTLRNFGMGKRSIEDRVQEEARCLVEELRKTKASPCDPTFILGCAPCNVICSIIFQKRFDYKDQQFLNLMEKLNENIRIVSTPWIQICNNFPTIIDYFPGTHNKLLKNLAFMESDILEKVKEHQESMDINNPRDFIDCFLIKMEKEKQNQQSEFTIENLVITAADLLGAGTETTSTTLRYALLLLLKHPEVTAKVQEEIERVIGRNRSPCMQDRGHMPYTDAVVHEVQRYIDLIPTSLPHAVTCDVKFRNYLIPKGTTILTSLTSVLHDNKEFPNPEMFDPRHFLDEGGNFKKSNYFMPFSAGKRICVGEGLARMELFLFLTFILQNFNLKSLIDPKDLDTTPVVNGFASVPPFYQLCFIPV

activity at 30 min (CYP2C19) [%] | activity at 30 min (CYP2B6) [%] | activity at 30 min (CYP2C9) [%] | IC50 (CYP1A2; [1]) [µM] | activity at 30 min (CYP1A2; [2]) [%] | activity at 30 min (CYP2A6) [%] | activity at 30 min (CYP2D6) [%] | activity at 30 min (CYP3A4) [%] | IC50 at 30 min (CYP1A2; human, human liver microsomes, pH 7.4, probe phenacetin 40 μM, IC50 against CYP 1A2, substrate phenacetin 40 μM, HLM) [µM] | SMILES
63.6 ± 7.83 | 75.3 ± 4.16 | 87.3 ± 6.36 | 14 ± 1.73 | 33 ± 4.08 | 79.9 ± 0.97 | 76.5 ± 4.49 | 60.3 ± 3.06 | – | CC(CC(=O)CC(C)C1CC(=O)C2(C)C3=C(C(=O)C(O)C12C)C1(C)CCC(=O)C(C)(CO)C1CC3O)C(=O)O (stereo not drawn) [Compound 3]
62.77 ± 0.26 | 79.86 ± 0.32 | 87.1 ± 3.47 | 16 ± 4.05 | 35.4 ± 3.33 | 78.38 ± 0.16 | 79.7 ± 8.99 | 79.6 ± 5.54 | – | CC(CC(=O)CC(C)C1CC(=O)C2(C)C3=C(C(=O)CC12C)C1(C)CCC(O)C(C)(CO)C1CC3O)C(=O)O (stereo not drawn) [Compound 2]
97.6 ± 4.86 | 94.3 ± 3.45 | 94.8 ± 3.33 | – | 88 ± 3.49 | 104 ± 1.4 | 104 ± 3.22 | 60.1 ± 3.57 | – | CC1(C)CCC2(C(=O)O)CCC3(C)C(=CC(=O)C4C5(C)CCC(O)C(C)(C)C5CCC43C)C2C1 (stereo not drawn) [Compound 37]

More lines, now with the values behind:

SMILES | activity at 30 min (CYP2C19) [%] | activity at 30 min (CYP2B6) [%] | activity at 30 min (CYP2C9) [%] | IC50 (CYP1A2; [1]) [µM] | activity at 30 min (CYP1A2; [2]) [%] | activity at 30 min (CYP2A6) [%] | activity at 30 min (CYP2D6) [%] | activity at 30 min (CYP3A4) [%] | IC50 at 30 min (CYP1A2; human, human liver microsomes, pH 7.4, probe phenacetin 40 μM, IC50 against CYP 1A2, substrate phenacetin 40 μM, HLM) [µM]
CC(=CC(=O)CC(C)C(=O)O)C1CC(=O)C2(C)C3=C(C(=O)CC12C)C1(C)CCC(=O)C(C)(C)C1CC3O (stereo not drawn) [Compound 51] | 110 ± 3.54 | 77.8 ± 7.96 | 99.8 ± 6.62 | 38.6 ± 9.4 | 58 ± 2.08 | 86 ± 4.07 | 89.5 ± 3.3 | 94.1 ± 7.18 | –
CC(=O)OC1C(=O)C2=C(C(=O)CC3C(C)(C)C(=O)CCC23C)C2(C)C(=O)CC(C(C)CC(O)C=C(C)C(=O)O)C12C (stereo not drawn) [Compound 31] | 94.8 ± 4.46 | 71.2 ± 4.24 | 80.99 ± 0.51 | – | 53.7 ± 1.44 | 86.17 ± 0.44 | 103 ± 3.3 | 104 ± 1.72 | 29 ± 6.91
